Measured values published in patent US20120251643A1, “ANTI-DIABETIC EXTRACT OF HONEYBUSH” (Zadec ApS, priority 2007, published 2012).

How the values were obtained:
[1] = tested on: diabetic rats (T1D and T2D); experiment: Flavonoids and extract administered to diabetic rats; format: in vivo; details: for results in diabetic rats compared with the extract: extracted and fractionated from Cyclopia
Method: The flavonoids specifically used were mangiferin and hesperidin.
Experiments with diabetic test animals (rats) were carried out.

[2] = Bioassay of purified fractions for anti-diabetic activity
Source text: The partially purified active extract may be dissolved in methanol, and may be further fractionated by column chromatography, employing silica gel as an adsorption medium and a chloroform/30% methanol mixture as an eluent. A plurality of different fractions may be obtained, and each may be evaluated, by suitable bioassaying procedures, to determine the anti-diabetic activity thereof.
A fraction having anti-diabetic activity may preferably be further fractionated such as by column chromatography using silica gel as an adsorption medium and a 9:1 chloroform:methanol solvent, and the resultant sub-fractions bioassayed for their anti-diabetic activity. A sub-fraction displaying anti-diabetic activity may, if desired, be further fractionated and purified, conveniently using a column chromatographic procedure with silica gel as the adsorption medium and a 9:1 ethylacetate:hexane solvent. The resultant purified fractions may again be evaluated by suitable bioassay procedures for their anti-diabetic activity.

| SMILES | results in diabetic rats compared with the extract [1] | lowering of blood sugar and diabetic symptoms ([1]; both T1D and T2D rats) | anti-diabetic activity of purified fraction [2] |
| --- | --- | --- | --- |
| COc1ccc([C@@H]2CC(=O)c3c(O)cc(O[C@@H]4O[C@H](CO[C@@H]5O[C@@H](C)[C@H](O)[C@@H](O)[C@H]5O)[C@@H](O)[C@H](O)[C@H]4O)cc3O2)cc1O [hesperidin, 7-[[6-O-(6-deoxy-α-L-mannopyranosyl)-β-D-glucopyranosyl]oxy]-2,3-dihydro-5-hydroxy-2-(3-hydroxy-4-methoxyphenyl)-4H-1-benzopyran-4-on] | results similar to those produced by the extract |  |  |
| O=c1c2cc(O)c(O)cc2oc2cc(O)c([C@@H]3O[C@H](CO)[C@@H](O)[C@H](O)[C@H]3O)c(O)c12 [mangiferin] | results similar to those produced by the extract | effective in lowering the blood sugar and generally alleviating diabetic symptoms | superior anti-diabetic activity |
